Earlier results in patent US20090155363A1, “METHODS FOR ORAL ADMINISTRATION OF ACTIVE DRUGS” (priority 2007, published 2009).

Settings: drug mixed with foods such as applesauce or vegetable juice, relative to administration of a nizatidine capsule with water

reduction of bioavailability: 30 to 40%
SMILES: CNC(=C[N+](=O)[O-])NCCSCc1csc(CN(C)C)n1 [nizatidine]
